pIC50: −log10 of the molar value.
Assays:
HeLa cells [1] = assay: CellTiter-Glo cell viability, HeLa cells; type: cell-based; details: Homo sapiens; HeLa cells, 72 hours, CellTiter-Glo
Experimental: (§1) The cell viability IC50 of each compound was determined using Promega CellTiter-Glo Luminescent Cell Viability Assay kit by measuring the total ATP levels to quantify the number of metabolically active cells upon drug treatment as described in Crouch et al., J Immunol Methods 1993, 160, (1), 81-8. Briefly, the compounds were suspended in DMSO at 10 mM and diluted in 384 plates (20 μl/well in DMSO) in triplicate by a 14-point titration (12 nM to 100 μM). 50 μl of HeLa cells or patient derived glioblastoma cells (HK-309) (2000 cells/well) were then treated with the prepared dilutions of the drugs (0.5 μl) and incubated at 37° C. and 5% CO2. 72 hours later 50 μl of CellTiter-Glo reagent was added to each well followed by a 2 minutes shaking and a 10-minute incubation to lyse the cells. The relative luminescent intensity units (RLU) of each well was measured using a Tecan M1000 microplate reader (Tecan Group Ltd.) with its green filter and 1 second integration time.
(§2) Cells used in Example 2 and other examples disclosed herein were cultured as follows: Adherent HeLa cells and patient derived glioblastoma cells were grown with 5% CO2 at 37° C. in F12:DMEM 50:50 medium (Invitrogen) containing 10% FBS and 1% penicillin/streptomycin. To obtain HeLa cells synchronized in mitosis, cycling cells were treated with 2 mM thymidine (Sigma-Aldrich) for eighteen hours, washed three times with PBS, and released into fresh media until they entered mitosis eight hours post-release. Patient-derived glioblastoma cells (HK-309) were collected and grown with approval from the UCLA Institutional Review Board. HK-309 was derived from a recurrent glioblastoma taken from a person. The cells were initially propagated as cancer stem cell-containing spheres in serum-free medium containing basic fibroblast growth factor and epidermal growth factor (Preprotech) as described previously by Visnyei et al., Mol Cancer Ther 2011, 10, (10), 1818-28.
For mitotic arrest IC50s, cells were treated with a twenty-point-2-fold-titration (190 pM to 10 μM) of each compound tested for 20 hours. For cell viability IC50s, cells were treated with a fourteen-point-2-fold-titration (12.2 nM to 100 μM). Mitotic arrest IC50 was determined by measuring the percent G2/M arrest using the Vybrant DyeCycle Green (Invitrogen) assay described above. Cell viability IC50 was determined using the CellTiter-Glo Assay (Promega), which measures total ATP levels. Plates were read with a Tecan M1000 micro-plate reader at 540 nm. The CDD software was used for generating IC50 and IC90 values.

[2] = system: patient-derived glioblastoma cells (HK-309); assay: CellTiter-Glo cell viability, patient-derived glioblastoma cells; type: cell-based; details: HK-309, 72 hours
Experimental: as §1, §2

tubulin = molecular target: T1, tubulin (Sus scrofa, UniProt P02554); assay: In vitro tubulin polymerization assay (HTS-tubulin polymerization kit, Cytoskeleton); type: biochemical; details: 3 μM compound, fluorescence, 70 minutes at 37° C.
T1 construct: purchased Cytoskeleton Inc. BK011P
Experimental: 1.5 ul of 10× strength compound, 20 μl of tubulin solution and Triton X-100 at a final concentration of 0.01% were added to each well in a 384 well plate. The reactions were assembled on ice to prevent tubulin pre-polymerization. For kinetic measurements, microtubule polymerization was monitored by reading the fluorescence at 420 nm (due to the incorporation of a fluorescent reporter into microtubules as polymerization occurs) every ten seconds using a Tecan M1000 microplate reader (FIG. 6B). […] Fluorescence increased as polymerization occurred, due to the incorporation of 4′,6-diamidino-2-phenylindole. Fluorescence was monitored every minute for 70 minutes at 37° C.
Tubulin polymerization reactions were carried out according to the manufacturer (Cytoskeleton, BK011P) in the presence of 3 μM colchicine, MI-181, taxol or DMSO. Polymerization was monitored with a Tecan M1000 micro-plate reader at 420 nm for 70 minutes at 37° C. The results are depicted in FIG. 11.

HeLa cells [3] = assay: Microtubule stability by immunofluorescence microscopy; type: cell-based; details: increasing concentrations, anti-α-tubulin staining
Experimental: Next, microtubule stability was analyzed in HeLa cells treated with increasing concentrations of each of these three compounds by fixing the cells with 4% paraformaldehyde, staining them with Hoechst 33342 (DNA dye) to visualize their DNA and anti-α-tubulin antibodies to visualize microtubule structures and then imaging them by immunofluorescence microscopy.

HeLa cells [4] = assay: Cell cycle analysis / cell division; type: cell-based; details: 20 hours
Experimental: For cell cycle analysis, HeLa cells were plated in 384 well plates (1500 cells/well) and treated with 10 μM drugs for 20 hours. Cells were then fixed and stained with 5 μM Vybrant DyeCycle Green (Invitrogen) for 1 hour at 37° C. and plates were scanned with an Acumen eX3 (TTP Labtech) fluorescence microplate cytometer using its 488 nm laser and a cell cycle histogram profile was generated for each drug treatment using the CDD (Collaborative Drug Discovery) software. […] Additionally, HeLa cells were treated with increasing concentrations of colchicine and compound 10 for 20 hours and the drug response dose curves were used to measure the mitotic arrest IC50 for each treatment.
Briefly, HeLa cells were treated with increasing concentrations of 10, 10a, and 10b for 20 hours and the drug response dose curves were used to measure the mitotic arrest IC50 for each treatment. Also, the percentage of cells undergoing normal cell division was quantified for DMSO, colchicine, 10b, or taxol-treated cells. Data represent the average±SD of 3 independent experiments, with 20 cells counted for each. Asterisks denotes p-value<0.0001.

β-tubulin = assay: Crystal structure of T2R-TTL tubulin complex soaked with ligand; type: binding, bovine; details: T2R-TTL crystal soaked 24 hours with 1 mM compound
Experimental: The crystal structure of tubulin bound to two ligands described here was obtained using an established system for tubulin crystal growth. […] Methods in Cell Biology 2010, 95:373-390.) Briefly, bovine αβ-tubulin, human RB3 or rat STMN4 stathmin-like domain, and chicken tubulin tyrosine ligase (TTL) reconstitute to form a stathmin-bound αβ-tubulin (T2R) T2R-TTL complex, which readily crystallizes. […]
The final resolution cutoffs described here were determined optimally from a subset of diffraction images that took into consideration the signal-to-noise ratio for reflection intensities and the random half-data set correlation coefficient, CC1/2 (Karplus P. A., Diederichs K. Linking crystallographic model and data quality. Science 2012, (New York, N.Y.) 336:1030-1033.) […]

T1 sequence (P02554 whole entry): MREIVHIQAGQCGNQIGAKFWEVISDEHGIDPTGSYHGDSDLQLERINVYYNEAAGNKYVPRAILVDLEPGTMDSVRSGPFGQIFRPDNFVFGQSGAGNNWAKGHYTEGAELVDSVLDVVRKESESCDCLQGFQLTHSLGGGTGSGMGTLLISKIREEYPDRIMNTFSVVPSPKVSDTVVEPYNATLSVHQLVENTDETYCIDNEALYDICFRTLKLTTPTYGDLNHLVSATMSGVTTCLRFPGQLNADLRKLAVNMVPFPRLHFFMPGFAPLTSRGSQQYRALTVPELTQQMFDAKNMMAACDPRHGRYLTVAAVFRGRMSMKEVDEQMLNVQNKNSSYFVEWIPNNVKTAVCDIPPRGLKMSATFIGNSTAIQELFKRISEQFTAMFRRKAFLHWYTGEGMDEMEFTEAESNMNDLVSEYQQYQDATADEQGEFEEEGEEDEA
T1 sequence (P02550 whole entry partner): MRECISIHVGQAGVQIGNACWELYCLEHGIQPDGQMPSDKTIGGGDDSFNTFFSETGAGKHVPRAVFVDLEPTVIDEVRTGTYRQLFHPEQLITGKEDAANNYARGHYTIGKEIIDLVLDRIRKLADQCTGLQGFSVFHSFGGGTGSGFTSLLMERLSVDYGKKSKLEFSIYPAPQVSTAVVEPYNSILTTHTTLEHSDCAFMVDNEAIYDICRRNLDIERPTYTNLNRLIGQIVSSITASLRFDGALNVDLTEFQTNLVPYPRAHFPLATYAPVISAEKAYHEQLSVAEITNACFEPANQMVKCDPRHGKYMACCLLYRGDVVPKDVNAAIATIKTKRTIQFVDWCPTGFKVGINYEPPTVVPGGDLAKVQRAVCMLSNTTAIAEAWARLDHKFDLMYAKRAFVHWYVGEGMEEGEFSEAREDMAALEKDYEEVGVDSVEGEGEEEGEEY

| Structure (SMILES) | pIC50 (HeLa cells [1]) | pIC50 [2] | inhibition of microtubule (tubulin) polymerization in vitro (tubulin) | microtubule stability in treated cells (HeLa cells [3]) | effect on cell division and cell death (HeLa cells [4]) | binding to tubulin in crystal structure (β-tubulin) |
| --- | --- | --- | --- | --- | --- | --- |
| O=c1[nH]c(/C=C/c2ccccc2)nc2sc3c(c12)CCCC3 [Compound 10, (E)-2-styryl-5,6,7,8-tetrahydrobenzo[4,5]thieno[2,3-d]pyrimidin-4(3H)-one] | 6.26 | 6.45 | potent inhibitors of microtubule polymerization similar to colchicine | destabilized in a drug dose-dependent manner | inhibit cell division and trigger apoptotic cell death |  |
| CCOc1ccc(C2=Nn3c(nnc3-c3ccccc3OC)SC2)cc1 [Compound C2, reference compound] |  |  |  |  |  | bound to β-tubulin |

Source: US10913750B2, “Tubulin-binding compounds, compositions and uses related thereto” (The Regents of the University of California, priority 2015, dated 2021)
